Results as given in patent publication US11098010B2 (priority 2017, dated 2021).
pEC50: −log10 of the molar value. Structures can show the parent of a compound that is named as a salt.

test system: HBV rcDNA in HepDE19 cells; test: HepDE19 assay with bDNA quantitation of HBV rcDNA; type: cell-based, hepatitis B virus (HBV); conditions: HepDE19 cells, inhibition of rcDNA formation, 7 day incubation, top concentration 25 μM; read-out: DE-19 bDNA EC50

| SMILES | pEC50 |
| --- | --- |
| CC(C)n1nccc1COC(=O)N[C@H]1CCc2c(C(=O)Nc3ccc(F)c(Cl)c3)ccc(F)c21 [Compound 106, O-(1-Isopropyl-1H-pyrazol-5-yl)methyl, N—(S)-(4-((3-chloro-4-fluorophenyl)carbamoyl)-7-fluoro-2,3-dihydro-1H-inden-1-yl) carbamate] | 6.77 |
| COC(=O)NC1c2c(F)ccc(C(=O)Nc3ccc(F)c(Cl)c3)c2CC1(C)C (stereo not shown) [Compound 121, O-Methyl, N-(4-((3-chloro-4-fluorophenyl)carbamoyl)-7-fluoro-2,2-dimethyl-2,3-dihydro-1H-inden-1-yl) carbamate] | < 4.60 |
| COC(=O)NC1c2c(F)ccc(C(=O)Nc3ccc(F)c(Cl)c3)c2CC1(C)C (stereo not shown) [Compound 122, O-Methyl, N-(4-((3-chloro-4-fluorophenyl)carbamoyl)-7-fluoro-2,2-dimethyl-2,3-dihydro-1H-inden-1-yl) carbamate] | 6.33 |

same assay, conditions: Hepatitis B virus, HepDE19, 168 h, HepDE19 cells, inhibition of rcDNA formation, 7 day incubation, top concentration 25 μM; read-out: DE-19 bDNA EC50

| SMILES | pEC50 |
| --- | --- |
| Cn1nccc1COC(=O)N[C@H]1CCc2c(C(=O)Nc3ccc(F)c(Cl)c3)ccc(F)c21 [Compound 103, O-(1-Methyl-1H-pyrazol-5-yl)methyl, N—(S)-(4-((3-chloro-4-fluorophenyl)carbamoyl)-7-fluoro-2,3-dihydro-1H-inden-1-yl) carbamate] | 7.00 |
| COCCOC(=O)N[C@H]1CCc2c(C(=O)Nc3ccc(F)c(Cl)c3)ccc(F)c21 [Compound 111, O-2-Methoxyethyl, N—(S)-(4-((3-chloro-4-fluorophenyl)carbamoyl)-7-fluoro-2,3-dihydro-1H-inden-1-yl) carbamate] | 6.82 |
| O=C(N[C@H]1CCc2c(C(=O)Nc3ccc(F)c(Cl)c3)ccc(F)c21)c1ccccn1 [Compound 115, (S)—N-(4-((3-Chloro-4-fluorophenyl)carbamoyl)-7-fluoro-2,3-dihydro-1H-inden-1-yl)picolinamide] | 5.66 |
| O=C(N[C@H]1CCc2c(C(=O)Nc3ccc(F)c(Cl)c3)ccc(F)c21)c1cncs1 [Compound 116, (S)—N-(4-((3-Chloro-4-fluorophenyl)carbamoyl)-7-fluoro-2,3-dihydro-1H-inden-1-yl)thiazole-5-carboxamide] | 5.77 |
| CS(=O)(=O)N[C@H]1CCc2c(C(=O)Nc3ccc(F)c(Cl)c3)ccc(F)c21 [Compound 117, (S)—N-(3-chloro-4-fluorophenyl)-7-fluoro-1-(methylsulfonamido)-2,3-dihydro-1H-indene-4-carboxamide] | 6.28 |
| O=C(CN1CCOCC1)N[C@H]1CCc2c(C(=O)Nc3ccc(F)c(Cl)c3)ccc(F)c21 [Compound 118, (S)—N-(3-Chloro-4-fluorophenyl)-7-fluoro-1-(2-morpholinoacetamido)-2,3-dihydro-1H-indene-4-carboxamide] | 5.66 |
| O=C(N[C@H]1CCc2c(C(=O)Nc3ccc(F)c(Cl)c3)ccc(F)c21)c1ccncc1 [Compound 120, (S)—N-(4-((3-Chloro-4-fluorophenyl)carbamoyl)-7-fluoro-2,3-dihydro-1H-inden-1-yl)isonicotinamide] | 6.62 |
| COC(=O)O[C@H]1CCc2c(C(=O)Nc3ccc(F)c(Cl)c3)ccc(F)c21 [Compound 123, (S)-4-(3-Chloro-4-fluorophenylcarbamoyl)-7-fluoro-2,3-dihydro-1H-inden-1-yl Methyl Carbonate] | 6.12 |
| O=C(N[C@H]1CCc2c(C(=O)Nc3ccc(F)c(Cl)c3)ccc(F)c21)OCc1cscn1 [Compound 124, O-Thiazol-4-ylmethyl, N—(S)-(4-((3-chloro-4-fluorophenyl)carbamoyl)-7-fluoro-2,3-dihydro-1H-inden-1-yl) carbamate] | 7.22 |
| O=C(N[C@H]1CCc2c(C(=O)Nc3ccc(F)c(Cl)c3)ccc(F)c21)c1nccs1 [Compound 127, (S)—N-(4-((3-Chloro-4-fluorophenyl)carbamoyl)-7-fluoro-2,3-dihydro-1H-inden-1-yl)thiazole-2-carboxamide] | 6.44 |
| O=C(Nc1ccc(F)c(Cl)c1)c1ccc(F)c2c1CC[C@@H]2NS(=O)(=O)C1CC1 [Compound 128, (S)—N-(3-Chloro-4-fluorophenyl)-1-(cyclopropanesulfonamido)-7-fluoro-2,3-dihydro-1H-indene-4-carboxamide] | 7.40 |
| O=C(N[C@H]1CCc2c(C(=O)Nc3ccc(F)c(Cl)c3)ccc(F)c21)c1cnco1 [Compound 129, (S)—N-(4-((3-Chloro-4-fluorophenyl)carbamoyl)-7-fluoro-2,3-dihydro-1H-inden-1-yl)oxazole-5-carboxamide] | 6.39 |
| O=C(N[C@H]1CCc2c(C(=O)Nc3ccc(F)c(Cl)c3)ccc(F)c21)OC1CCCC1 [Compound 131, O-Cyclopentyl, N—(S)-(4-((3-chloro-4-fluorophenyl)carbamoyl)-7-fluoro-2,3-dihydro-1H-inden-1-yl)carbamate] | 6.23 |

same assay, conditions: Hepatitis B virus, HepDE19, 168 h, read-out: DE-19 bDNA EC50 (μM), HepDE19 cells, inhibition of rcDNA formation, 7 day incubation, top concentration 25 μM

| SMILES | EC50 [µM] |
| --- | --- |
| NC(=O)c1ccnc(N[C@H]2CCc3c(C(=O)Nc4ccc(F)c(Cl)c4)ccc(F)c32)n1 [Compound 104, (S)-2-((4-((3-Chloro-4-fluorophenyl)carbamoyl)-7-fluoro-2,3-dihydro-1H-inden-1-yl)amino)pyrimidine-4-carboxamide] | 0.16 |
| Cc1ncsc1CCOC(=O)N[C@H]1CCc2c(C(=O)Nc3ccc(F)c(Cl)c3)ccc(F)c21 [Compound 105, O-2-(4-Methylthiazol-5-yl)ethyl, N—(S)-(4-((3-chloro-4-fluorophenyl)carbamoyl)-7-fluoro-2,3-dihydro-1H-inden-1-yl) carbamate] | 0.19 |
| COc1ccc(COC(=O)N[C@H]2CCc3c(C(=O)Nc4ccc(F)c(Cl)c4)ccc(F)c32)nc1 [Compound 107, O-(5-Methoxypyridin-2-yl)methyl, N—(S)-(4-((3-chloro-4-fluorophenyl)carbamoyl)-7-fluoro-2,3-dihydro-1H-inden-1-yl) carbamate Hydrochloride] | 1.2 |
| O=C(N[C@H]1CCc2c(C(=O)Nc3ccc(F)c(Cl)c3)ccc(F)c21)OC[C@@H]1CCCN1CC(F)(F)F [Compound 108, O-[(2S)-1-(2,2,2-Trifluoroethyl)pyrrolidin-2-yl]methyl, N-[(1S)-4-[(3-chloro-4-fluorophenyl)carbamoyl]-7-fluoro-2,3-dihydro-1H-inden-1-yl]carbamate Hydrochloride] | 0.72 |
| O=C(N[C@H]1CCc2c(C(=O)Nc3ccc(F)c(Cl)c3)ccc(F)c21)OCc1ccc(F)cn1 [Compound 109, O-(5-Fluoropyridin-2-yl)methyl, N—(S)-(4-((3-chloro-4-fluorophenyl)carbamoyl)-7-fluoro-2,3-dihydro-1H-inden-1-yl) carbamate] | 0.27 |
| O=C(N[C@H]1CCc2c(C(=O)Nc3ccc(F)c(Cl)c3)ccc(F)c21)OCCc1cn[nH]c1 [Compound 110, O-2-(1H-Pyrazol-4-yl)ethyl, N—(S)-(4-((3-chloro-4-fluorophenyl)carbamoyl)-7-fluoro-2,3-dihydro-1H-inden-1-yl) carbamate] | 0.2 |
| O=C(N[C@H]1CCc2c(C(=O)Nc3ccc(F)c(Cl)c3)ccc(F)c21)OC[C@H]1CCCO1 [Compound 112, O—((R)-Tetrahydrofuran-2-yl)methyl, N—((S)-4-((3-chloro-4-fluorophenyl)carbamoyl)-7-fluoro-2,3-dihydro-1H-inden-1-yl) carbamate] | 0.21 |
| O=C(N[C@H]1CCc2c(C(=O)Nc3ccc(F)c(Cl)c3)ccc(F)c21)OC1CCOCC1 [Compound 113, O-Tetrahydro-2H-pyran-4-yl, N—(S)-(4-((3-chloro-4-fluorophenyl)carbamoyl)-7-fluoro-2,3-dihydro-1H-inden-1-yl) carbamate] | 0.31 |
| COCCCOC(=O)N[C@H]1CCc2c(C(=O)Nc3ccc(F)c(Cl)c3)ccc(F)c21 [Compound 114, O-3-Methoxypropyl, N—(S)-(4-((3-chloro-4-fluorophenyl)carbamoyl)-7-fluoro-2,3-dihydro-1H-inden-1-yl) carbamate] | 0.47 |
| O=C(N[C@H]1CCc2c(C(=O)Nc3ccc(F)c(Cl)c3)ccc(F)c21)OCCCn1ccnc1 [Compound 125, O-3-(1H-Imidazol-1-yl)propyl, N—(S)-(4-((3-chloro-4-fluorophenyl)carbamoyl)-7-fluoro-2,3-dihydro-1H-inden-1-yl) carbamate Hydrochloride] | 0.28 |
| N#Cc1cc(NC(=O)c2ccc(F)c3c2CC[C@@H]3NC(=O)OCc2ccccn2)ccc1F [Compound 126, O-Pyridin-2-ylmethyl, N—(S)-(4-((3-cyano-4-fluorophenyl)carbamoyl)-7-fluoro-2,3-dihydro-1H-inden-1-yl)carbamate Hydrochloride] | 0.24 |
| COC(=O)N[C@@H]1c2cccc(C(=O)Nc3ccc(F)c(Cl)c3)c2C[C@H]1OC [Compound 130, O-Methyl, N-((1R,2R)-4-((3-chloro-4-fluorophenyl)carbamoyl)-2-methoxy-2,3-dihydro-1H-inden-1-yl)carbamate] | 0.1 |
| O=C(N[C@H]1CCc2c(C(=O)Nc3ccc(F)c(Cl)c3)ccc(F)c21)OCC1CNC(=O)O1 (stereo partly drawn) [Compound 132, O-(2-Oxooxazolidin-5-yl)methyl, N—((S)-4-((3-chloro-4-fluorophenyl)carbamoyl)-7-fluoro-2,3-dihydro-1H-inden-1-yl) carbamate] | 0.22 |
| O=C(N[C@H]1CCc2c(C(=O)Nc3ccc(F)c(Cl)c3)ccc(F)c21)OCCn1cccn1 [Compound 133, O-2-(1H-Pyrazol-1-yl)ethyl, N—(S)-(4-((3-chloro-4-fluorophenyl)carbamoyl)-7-fluoro-2,3-dihydro-1H-inden-1-yl) carbamate] | 0.15 |

same assay, conditions: read-out: DE-19 bDNA EC50; HepDE19 cells, inhibition of rcDNA formation, 7 day incubation, top concentration 25 μM

| SMILES | pEC50 |
| --- | --- |
| CC1(C)Cc2c(C(=O)Nc3ccc(F)c(Cl)c3)ccc(F)c2C1NC(=O)OCc1ccccn1 (stereo not shown) [Compound 135, O-Pyridin-2-ylmethyl, N-(4-((3-chloro-4-fluorophenyl)carbamoyl)-7-fluoro-2,2-dimethyl-2,3-dihydro-1H-inden-1-yl) carbamate] | 5.08 |
